Source: ChEMBL document CHEMBL2074220, “Interaction of human organic anion transporters with various cephalosporin antibiotics” (Eur J Pharmacol, 2002)

Assays:
[1] = target: T1, Organic anion transporter 3 (Homo sapiens, UniProt Q8TCC7); assay: TP_TRANSPORTER: inhibition of Estrone sulfate uptake in OAT3-expressing S2 cells; assay type: functional, cell-based
T1 sequence (Q8TCC7 whole entry): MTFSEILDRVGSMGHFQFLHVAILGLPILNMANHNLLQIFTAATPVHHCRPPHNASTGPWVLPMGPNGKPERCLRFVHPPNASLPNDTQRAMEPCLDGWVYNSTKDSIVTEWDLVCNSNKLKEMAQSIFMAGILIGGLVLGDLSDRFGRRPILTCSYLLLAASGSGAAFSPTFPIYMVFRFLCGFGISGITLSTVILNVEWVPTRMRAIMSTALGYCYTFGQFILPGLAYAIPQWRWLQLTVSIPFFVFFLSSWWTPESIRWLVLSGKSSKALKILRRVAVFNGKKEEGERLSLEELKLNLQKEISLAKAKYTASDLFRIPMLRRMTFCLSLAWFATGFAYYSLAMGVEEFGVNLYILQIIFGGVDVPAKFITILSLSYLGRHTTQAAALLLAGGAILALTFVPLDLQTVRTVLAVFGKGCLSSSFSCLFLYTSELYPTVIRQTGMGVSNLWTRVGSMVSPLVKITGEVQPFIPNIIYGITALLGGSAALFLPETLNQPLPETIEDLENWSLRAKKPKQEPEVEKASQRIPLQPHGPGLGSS

[2] = target: T2, Solute carrier family 22 member 11 (Homo sapiens, UniProt Q9NSA0); assay: TP_TRANSPORTER: inhibition of Estrone sulfate uptake in OAT4-expressing S2 cells; assay type: functional, cell-based
T2 sequence (Q9NSA0 whole entry): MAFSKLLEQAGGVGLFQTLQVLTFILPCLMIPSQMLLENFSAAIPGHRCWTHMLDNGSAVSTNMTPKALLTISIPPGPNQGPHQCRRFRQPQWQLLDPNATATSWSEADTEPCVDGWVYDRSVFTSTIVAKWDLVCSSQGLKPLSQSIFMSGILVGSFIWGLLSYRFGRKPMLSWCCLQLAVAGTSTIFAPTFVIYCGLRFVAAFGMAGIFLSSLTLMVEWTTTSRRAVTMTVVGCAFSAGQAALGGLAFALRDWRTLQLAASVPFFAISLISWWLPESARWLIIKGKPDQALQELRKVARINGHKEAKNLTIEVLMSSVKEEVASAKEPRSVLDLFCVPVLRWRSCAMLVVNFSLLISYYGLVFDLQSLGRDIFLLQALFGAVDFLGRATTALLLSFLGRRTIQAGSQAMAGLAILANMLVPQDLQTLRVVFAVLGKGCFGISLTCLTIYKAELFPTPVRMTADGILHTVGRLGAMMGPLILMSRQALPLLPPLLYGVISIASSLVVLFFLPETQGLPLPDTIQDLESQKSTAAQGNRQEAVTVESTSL

## Cn1nnnc1SCC1=C(C(=O)O)N2C(=O)[C@@H](NC(=O)[C@H](O)c3ccccc3)[C@H]2SC1 [CEFAMANDOLE]
[1]
  Ki: 46 µM

## Cc1nnc(SCC2=C(C(=O)O)N3C(=O)[C@@H](NC(=O)Cn4cnnn4)[C@H]3SC2)s1 [CEFAZOLIN]
[1]
  Ki: 550 µM

## CO/N=C(\C(=O)N[C@@H]1C(=O)N2C(C(=O)O)=C(COC(C)=O)CS[C@H]12)c1csc(N)n1 [CEFOTAXIME]
[1]
  Ki: 290 µM

## CC(=O)OCC1=C(C(=O)O)N2C(=O)[C@@H](NC(=O)Cc3cccs3)[C@H]2SC1 [CEPHALOTHIN]
[2]
  Ki: 200 µM
[1]
  Ki: 40 µM
